Data on six compounds can be found in patent publication US20260102492A1, “Inhibition of Natural Killer Cell Cytoxocity” (University of Cincinnati, priority 2022, published 2026).

For data set [1], the system named is HNSCC patient-derived NK cells. The data set can be described thus: NK cell perforin ELISA after co-culture with Cal27 cells. Format: cell-based, Human. As to conditions: for reversal of CXCL1 mediated inhibition of perforin: 50 ng CXCL1, Cal27 4 hours. Here is the method:
For NK cell perforin assays, NK cells were treated with drug for 24 hrs, washed, and co-cultured with Cal27 cells for 4 hours. Supernatant was then collected, snap frozen in liquid nitrogen and stored at −80 until thawed for single use. For patient samples, undiluted plasma was added directly to ELISA. ELISA kit for perforin was obtained from ABCAM. ELISA was performed according to the manufacturer's protocol. Protocols included overnight coating of capture antibody diluted by lot number recommendation, 1 hr block with 400 uL 2% BSA in PBS, 2 hr sample incubation at room temperature of 100 uL sample (no dilution of sample was performed in these experiments), 2 hr […] diluted by lot number recommendation, 20 min Streptavidin incubation with 100 uL of 1:40 dilution of stock, and 15 min incubation with 100 uL included TMB ELISA reagent. 50 uL stop solution of in house 2N […] was added to stop reaction before reading at […] wavelength on plate reader. All plates included standard curve prepared per lot number recommendation with range of 35-2000 pg.
HNSCC patient-derived NK cells were treated with exogenous CXCL1 and an inhibitor of the CXCL1 receptor, CXCR2, or metformin. Patient-derived NK cells were exposed to Cal27 cells for 4 hours and supernatant was collected for perforin analysis by ELISA. Specifically, HNSCC NK cells derived from PBMCs were treated with 50 ng CXCL1, 12 mM metformin, or 10 nM CXCR2i (navarixin) and subjected to perforin against Cal27 target cells. Cells were analyzed by flow and analyzed by one way ANOVA. n=8.
Specifically, HNSCC NK cells were treated with vehicle, metformin, or 10 uM AMPK inhibitor (Dosomorphin) for 24 hrs, washed, and co-cultured with Cal27 cells for 4 hrs. Supernatant was collected for ELISA and analyzed by one way ANOVA. n=5.
HNSCC patient-derived NK cells were treated with vehicle, metformin, 10 uM mTOR inhibitor (Everolimus), or 10 uM mTOR activator (MHY1485) for 24 hrs, washed, and co-cultured with Cal27 cells for 4 hrs. Supernatant was collected for ELISA and analyzed by one way ANOVA. n=5.
As pSTAT1 can modulate perforin production, HNSCC patient-derived NK cells were treated with vehicle, […], or 10 uM of pSTAT1i inhibitor Fludarabine for 24 hrs, washed, and co-cultured with Cal27 cells for 4 hrs.
HNSCC NK cells were treated with vehicle, 12 mM metformin, 50 ng CXCL1, or 10 uM pSTAT3 inhibitor BP-1012 and co-cultured with Cal27 cells for 4 hrs. Supernatant was collected for ELISA and analyzed by one way ANOVA. n=5.

In data set [2] the test system is HNSCC patient-derived NK cells. The data set can be described thus: CXCL1 ELISA of NK cell culture supernatant. Format: cell-based, Human. As for the experimental part: Healthy donor and HNSCC NK cells were isolated from PBMCs and were treated for 24 hrs with vehicle or metformin. Supernatant was collected and analyzed by ELISA (analyzed by one way ANOVA. n=10).
HNSCC NK cells were isolated from PBMCs and treated with vehicle, 12 mM metformin, 50 ng CXCL1, 10 uM everolimus, or 10 uM BP-1-102 for 24 hr. The cells were washed and plated in fresh media. After 24 hrs, supernatant was collected for ELISA.

A further data set deals with pSTAT3. The data set can be described thus: Western blot of HNSCC NK cell lysates, pSTAT3. The data set is classed as cell-based, Human. Here is the method: (§1) NK92, Cal27, UMSCC47 and HN5 cells were cultured with drug as described. Cells were collected in RIPA (0.05% sodium deoxycholate, […], 0.1% SDS, 1% NP-40) and protein content was analyzed by Pierce BCA kit (Thermo 23225). 50 ug of protein was diluted in 1×loading buffer (SDS, bromophenol blue, 47% glycerol, Tris 0.5M pH 6.8, 0.2 mM DTT-G) and heated to 90° C. for 3 minutes. Prepared lysate was loaded into gradient gels (Biorad 4561093) and run at 85V for 1.5 hour in Biorad casing with a Biorad powerpack in 1×running buffer (Tris, Glycine, SDS). Gels were transferred on nitrocellulose and run at 100V on bench for 1 hour in 1×transfer buffer (Tris, Glycine). Membranes were blocked in 5% BSA in TBS for 1 hr, washed, and incubated in primary diluted in 2% BSA in TBS overnight. Membranes were washed and incubated in Licor secondary (Licor 926-32211 and 925-68070) in 5% BSA in TBS for 1 hr. Membranes were washed and imaged on a Licor Odyssey Clx. Images were analyzed in Image Studio Lite V 5.2.
(§2) To determine what those pathways could be, pathways known to be affected by both metformin and CXCL1 were investigated. pSTAT3 and mTOR are known to be increased by activation of the CXCR2 receptor, and mTOR activation can inhibit pSTAT1 expression. Metformin is also hypothesized to inhibit pSTAT3 and mTOR in NK cells. Therefore, HNSCC patient-derived NK cells treated with metformin, CXCL1, or CXCR2i (navaxarin) were collected and analyzed by western blot analysis. Head and neck squamous cell carcinoma (HNSCC) natural killer (NK) cells were treated with metformin, 50 ng CXCL1, or 10 uM CXCR2i (navarixin) for 24 hrs and collected for lysates analyzed by western blot analysis (FIG. 3A).
On the technique in general: In western blotting, separated proteins are transferred to a membrane and probed.

Another data set deals with HNC cells. As to the kind of experiment: Natural killer cytotoxicity assay (NKCA), NK cells against CFSE labeled HNC cells (7AAD). As to conditions: exogenous CXCL1 added to metformin treated NK cells. The data set is classed as cell-based. As for the experimental part: FIG. 12B is a graph showing NK cells that were treated with either pembrolizumab (PD-1 inhibitor), exogenous CXCL1, Navaxarin (CXCR2 inhibitor) or combination and combined with CFSE labeled HNC cells. Cytotoxicity was measured by 7AAD 4 hours after incubation. N=5, PBMCS or NK cells isolated from the same PBMCs from patient samples.
NK cells were isolated from PBMCs using the EasySep Human NK Cell Isolation Kit (Stem Cell Technologies). Cells were washed in Robobuffer and treated with drug indicated in legend for 24 hrs in culture medium. One day before co-culture, cells were collected, washed, and stained with 5(6)-Carboxyfluorescein diacetate N-succinimidyl ester (CFDA-SE) (StemCell Technologies). Untreated UMSCC47, Cal-27, or matched primary HNC tumor cell lines cells were plated at 20,000 cell/ml and assumed to double overnight. NK cells were resuspended in RPMI 1640 (Corning) with 5% human serum at a density of 200,000 cells/ml. Cells were co-cultured for a Target:Effector ratio of 1:5 for 4 hrs, collected, and washed in flow buffer. Cells were then stained with 7AAD Viability Staining Solution (Biolegend). Cells were immediately run on a 4-laser BD Instrument (University of Cincinnati Cancer Cell Biology Department, Cincinnati, Ohio). […] NK killed cells were calculated by the following equation: (% CSFE+7AAD+experimental co-culture)−(% CSFE+7AAD+control no co-culture).

In a further data set the test system is pSTAT1. As to the kind of experiment: Western blot of HNSCC NK cell lysates, pSTAT1. The data set is classed as cell-based, Human. As to conditions: metformin or 50 ng CXCL1, 24 hrs, FIG. 3A/3B. As for the experimental part:
as §1, with “Membranes were blocked in 5% BSA in TBS for 1 hr, washed, and incubated in primary diluted in 2% BSA in TBS overnight. Membranes were washed and incubated in Licor secondary (Licor 926-32211 and 925-68070) in 5% BSA in TBS for 1 hr. Membranes were washed and imaged on a Licor Odyssey Clx.” left out
as §2, with “Metformin is also hypothesized to inhibit pSTAT3 and mTOR in NK cells.” left out

For data set [3], the system named is CXCL1. The data set can be described thus: Plasma CXCL1 of pembrolizumab treated head and neck cancer patients (FIG. 11). The data set is classed as in vivo, Human. As to conditions: pembrolizumab treated patients vs baseline; preliminary data. From the text: CXCL1 was knocked out by CRISP-Cas9 in NK cells as a novel approach in order to enhance their tumor cytotoxicity. These NK cells can be used as an “off the shelf” anti-cancer therapeutic. […] In addition, CXCL1 functions were inhibited with a CXCR2 inhibitor as an alternative treatment strategy with and without addition of a PD-1 inhibitor. […] In addition, the combination of pembrolizumab and CXCR2 inhibitor (Navaxarin) increases both PBMC and NK cell cytotoxicity (FIGS. 12A, 12B and 13).

Data set [4] deals with CXCL1. As to the kind of experiment: Patient plasma CXCL1 ELISA, trial NCT02641093 (pre and post pembrolizumab). Format: in vivo, Human. (In general: In an ELISA, binding on a coated surface is turned into a signal by an enzyme label.)
Where [5] appears, read: combination of 10 uM everolimus and 10 uM BP-1-102, also with 50 ng CXCL1, n=5.
Where [6] appears, read: single agent (12 mM metformin, 10 uM everolimus or 10 uM BP-1-102) 24 hr, fresh media 24 hrs, n=5, FIG. 8.
The mark [7] stands for this setting: 10 uM single agent 24 hrs, Cal27 co-culture 4 hrs, n=5, FIG. 5.

For the compound `CN(CC(=O)N(Cc1ccc(C2CCCCC2)cc1)c1ccc(C(=O)O)c(O)c1)S(=O)(=O)c1c(F)c(F)c(F)c(F)c1F` [BP-1-102], the “rescue of CXCL1 mediated suppression of perforin” value in data set [1] (10 uM pSTAT3 inhibitor with 50 ng CXCL1, alone or with 12 mM metformin, Cal27 4 hrs, n=5) is on record as “able to rescue CXCL1 mediated suppression of perforin both alone or in presence of metformin”. The perforin result in data set [1] (10 uM pSTAT3 inhibitor, baseline, Cal27 co-culture 4 hrs, n=5, FIG. 7) was “no effect on perforin at baseline”. In addition, the CXCL1 secretion entry in data set [2] (setting [5]) is “decreased levels down to those similar of metformin even in the presence of CXCL1”; in data set [2] (setting [6]), “did not reduce CXCL1”.

Consider `CC[C@@H](Nc1c(Nc2cccc(C(=O)N(C)C)c2O)c(=O)c1=O)c1ccc(C)o1` [CXCR2 inhibitor, Navarixin], for which the “reversal of CXCL1 mediated inhibition of perforin” value is “reversed CXCL1 mediated inhibition” in data set [1] (10 nM CXCR2i (navarixin) alone, n=8) and “reversed CXCL1 mediated inhibition” in data set [1] (10 nM CXCR2i (navarixin) in combination with 12 mM metformin, n=8).

Take `CO[C@H]1C[C@@H]2CC[C@@H](C)[C@@](O)(O2)C(=O)C(=O)N2CCCC[C@H]2C(=O)O[C@H]([C@H](C)C[C@@H]2CC[C@@H](OCCO)[C@H](OC)C2)CC(=O)[C@H](C)/C=C(\C)[C@@H](O)[C@@H](OC)C(=O)[C@H](C)C[C@H](C)/C=C/C=C/C=C/1C` [Everolimus]: the perforin production result in data set [1] (10 uM Everolimus in combination with metformin 24 hrs, Cal27 co-culture 4 hrs, n=5) was “did not increase perforin over either agent alone”; in data set [1] (setting [7]), “enhanced perforin production similar to metformin”. Further, the CXCL1 secretion entry is “decreased levels down to those similar of metformin even in the presence of CXCL1” in data set [2] (setting [5]) and “did not reduce CXCL1” in data set [2] (setting [6]).

In the case of `O=[N+]([O-])c1ccc(Nc2nc(N3CCOCC3)nc(N3CCOCC3)n2)cc1` [MHY1485], in data set [1] (setting [7]), the perforin production entry was “did not result in suppression of perforin”.

In the case of C-X-C motif chemokine ligand 1 [CXCL1], the “metformin reduction of pSTAT3” value with pSTAT3 (exogenous CXCL1 (50 ng) together with metformin, 24 hrs) is “reversed”. Besides, the pSTAT3 result in the data set with pSTAT3 (metformin or 50 ng CXCL1, 24 hrs, western blot, FIG. 3A/3B) is recorded as “increases pSTAT3”. In addition, the metformin induced cytotoxicity result in the data set with HNC cells is “ablated metformin induced cytotoxicity”. For the same compound, in data set [1] (12 mM metformin or 50 ng CXCL1, Cal27 target cells 4 hours, n=8, FIG. 2), the perforin production result was “reduced NK cell perforin production”. Further, the “metformin mediated NK degranulation” value in data set [1] (exogenous CXCL1 added to metformin, FIG. 2) is recorded as “reverses metformin mediated NK degranulation”. The pSTAT1 entry in the data set with pSTAT1 is “did not reverse pSTAT1 expression with metformin or change it from baseline”.

On to pembrolizumab, for which the CXCL1 in plasma entry with CXCL1 [3] was “trend to higher levels of CXCL1”. For the same compound, the “plasma CXCL1” value in the data set on CXCL1 [4] (all patients, post vs pre pembrolizumab, FIG. 10A) was “significant increase in CXCL1”; in the data set with CXCL1 [4] (divided into responders and non-responders, n=10 each, FIG. 10B), “non-responders accounted for the increase”; in the data set with CXCL1 [4] (divided into responders and non-responders, n=10 each, FIG. 10B, listed as Pembrolizumab), “increased with non-responders”.
